This note sets out measurements from patent publication US20210238192A1, “VASCULAR ADHESION PROTEIN-1 (VAP-1) MODULATORS AND THERAPEUTIC USES THEREOF” (Blade Therapeutics, Inc., priority 2018, published 2021).

What all share (assay type): biochemical
Experiment [1] addresses T1, Human VAP-1 (Homo sapiens, UniProt Q16853).
T1 sequence (Q16853 1-763): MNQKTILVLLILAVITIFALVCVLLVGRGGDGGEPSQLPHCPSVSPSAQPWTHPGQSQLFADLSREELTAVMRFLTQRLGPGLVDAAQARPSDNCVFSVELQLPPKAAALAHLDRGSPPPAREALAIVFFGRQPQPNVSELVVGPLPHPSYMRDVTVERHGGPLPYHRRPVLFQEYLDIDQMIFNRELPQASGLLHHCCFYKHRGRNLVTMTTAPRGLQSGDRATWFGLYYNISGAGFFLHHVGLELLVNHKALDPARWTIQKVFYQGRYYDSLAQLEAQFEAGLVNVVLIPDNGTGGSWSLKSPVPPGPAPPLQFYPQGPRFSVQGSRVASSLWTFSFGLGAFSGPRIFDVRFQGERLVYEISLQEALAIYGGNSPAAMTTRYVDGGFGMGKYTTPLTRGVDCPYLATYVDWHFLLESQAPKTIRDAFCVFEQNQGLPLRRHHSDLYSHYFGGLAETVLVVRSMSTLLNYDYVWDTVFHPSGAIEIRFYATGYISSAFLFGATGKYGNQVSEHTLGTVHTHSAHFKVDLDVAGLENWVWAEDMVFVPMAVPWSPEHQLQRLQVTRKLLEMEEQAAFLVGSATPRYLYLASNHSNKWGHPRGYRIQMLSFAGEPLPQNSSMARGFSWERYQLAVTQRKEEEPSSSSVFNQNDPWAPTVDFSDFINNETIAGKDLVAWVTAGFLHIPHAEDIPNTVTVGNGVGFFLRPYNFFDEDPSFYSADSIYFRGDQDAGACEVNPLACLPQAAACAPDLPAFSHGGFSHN
The experiment can be described thus: VAP-1 inhibition assay (Amplex Red continuous fluorescence assay). The settings on record: 30 min pre-incubation at 37° C.; substrate benzylamine; read-out: Human VAP-1 IC50. How it is done: (§1) VAP-1, DAO, MAO-A, MAO-B, and HRP activity and inhibition thereof was assessed by means of a continuous fluorescence assay. The Amplex Red Hydrogen Peroxide/Peroxidase Assay (ThermoFisher) was optimized for detecting amine oxidase (AO) activity. In an enzyme-coupled reaction, the H2O2 generated by AO reacts 1:1 with Amplex Red reagent to produce fluorescent product resorufin.
(§2) Assays were typically setup in black 384-well plates using automated liquid handling as follows. VAP-1/MAO assay buffer contains […] sodium phosphate, pH 7.4; DAO assay buffer contains 50 mM HEPES, pH 7.5; HRP assay buffer contains 100 mM CHES, 1 mM MgCl2, 50 mM NaCl, 0.05% BSA, pH 9.0. Inhibitors were serially diluted in DMSO and used to setup 2× mixtures with AO in the aforementioned buffer. After 30 min pre-incubation at 37° C. (VAP-1, HRP) or room temp (DAO, MAO), the reaction was initiated by adding a 2× mix of Amplex Red, HRP (coupling enzyme), and substrate (benzylamine, histamine, tyramine, benzylamine, H2O2, for VAP-1, DAO, MAO-A, MAO-B, and HR, respectively) in the same buffer. Reaction progress curve data were typically collected for 5 min using excitation/emission wavelengths of 510 nm/565 nm on FLIPR-Tetra plate readers (Molecular Devices Inc). Reaction rates were calculated from progress curve slopes typically over 60-150 sec. Dose response curves (rate vs. log inhibitor concentration) were typically fit to a 4-parameter logistic function to extract IC50 values.

The target in experiment [2] is T2, Human MAO-B (Homo sapiens, UniProt P27338).
T2 sequence (P27338 1-520): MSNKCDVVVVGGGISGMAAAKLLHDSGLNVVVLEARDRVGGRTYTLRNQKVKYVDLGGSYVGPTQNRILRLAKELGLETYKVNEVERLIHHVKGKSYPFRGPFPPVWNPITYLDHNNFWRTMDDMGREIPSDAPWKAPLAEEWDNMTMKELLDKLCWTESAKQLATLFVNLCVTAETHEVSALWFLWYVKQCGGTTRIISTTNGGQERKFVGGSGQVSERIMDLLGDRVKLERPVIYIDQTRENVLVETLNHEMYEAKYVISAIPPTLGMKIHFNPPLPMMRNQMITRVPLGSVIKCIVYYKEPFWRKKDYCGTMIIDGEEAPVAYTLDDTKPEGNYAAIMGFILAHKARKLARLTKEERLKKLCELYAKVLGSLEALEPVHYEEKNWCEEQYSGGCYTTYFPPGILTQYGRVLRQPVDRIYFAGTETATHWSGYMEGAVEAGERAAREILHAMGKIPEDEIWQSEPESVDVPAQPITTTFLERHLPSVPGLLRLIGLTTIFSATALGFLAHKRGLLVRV
Kind of experiment: MAO-B inhibition (Amplex Red continuous fluorescence assay). The settings on record: 30 min pre-incubation at room temp; substrate benzylamine; read-out: Human MAO-B IC50. The method, then:
as §1, §2

Experiment [3] deals with T3, Human MAO-A (Homo sapiens, UniProt P21397).
T3 sequence (P21397 1-527): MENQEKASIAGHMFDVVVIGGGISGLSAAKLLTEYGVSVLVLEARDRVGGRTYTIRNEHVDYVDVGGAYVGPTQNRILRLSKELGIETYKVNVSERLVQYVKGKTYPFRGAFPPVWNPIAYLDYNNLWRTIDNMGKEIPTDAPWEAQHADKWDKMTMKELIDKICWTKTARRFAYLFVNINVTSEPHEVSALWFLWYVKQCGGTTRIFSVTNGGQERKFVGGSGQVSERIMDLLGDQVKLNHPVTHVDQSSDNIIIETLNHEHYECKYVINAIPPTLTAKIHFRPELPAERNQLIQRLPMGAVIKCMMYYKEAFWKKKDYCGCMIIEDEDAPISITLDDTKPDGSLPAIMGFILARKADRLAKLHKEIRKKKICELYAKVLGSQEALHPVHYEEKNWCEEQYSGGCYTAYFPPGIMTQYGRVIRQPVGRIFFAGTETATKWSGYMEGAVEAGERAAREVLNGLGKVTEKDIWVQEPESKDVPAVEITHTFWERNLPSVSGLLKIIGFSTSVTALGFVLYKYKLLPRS
The experiment can be described thus: MAO-A inhibition (Amplex Red continuous fluorescence assay). As to conditions: 30 min pre-incubation at room temp; substrate tyramine; read-out: Human MAO-A IC50. How it is done:
as §1, §2

In experiment [4] the target is T4, Human DAO (Homo sapiens, UniProt P19801).
T4 sequence (P19801 20-751): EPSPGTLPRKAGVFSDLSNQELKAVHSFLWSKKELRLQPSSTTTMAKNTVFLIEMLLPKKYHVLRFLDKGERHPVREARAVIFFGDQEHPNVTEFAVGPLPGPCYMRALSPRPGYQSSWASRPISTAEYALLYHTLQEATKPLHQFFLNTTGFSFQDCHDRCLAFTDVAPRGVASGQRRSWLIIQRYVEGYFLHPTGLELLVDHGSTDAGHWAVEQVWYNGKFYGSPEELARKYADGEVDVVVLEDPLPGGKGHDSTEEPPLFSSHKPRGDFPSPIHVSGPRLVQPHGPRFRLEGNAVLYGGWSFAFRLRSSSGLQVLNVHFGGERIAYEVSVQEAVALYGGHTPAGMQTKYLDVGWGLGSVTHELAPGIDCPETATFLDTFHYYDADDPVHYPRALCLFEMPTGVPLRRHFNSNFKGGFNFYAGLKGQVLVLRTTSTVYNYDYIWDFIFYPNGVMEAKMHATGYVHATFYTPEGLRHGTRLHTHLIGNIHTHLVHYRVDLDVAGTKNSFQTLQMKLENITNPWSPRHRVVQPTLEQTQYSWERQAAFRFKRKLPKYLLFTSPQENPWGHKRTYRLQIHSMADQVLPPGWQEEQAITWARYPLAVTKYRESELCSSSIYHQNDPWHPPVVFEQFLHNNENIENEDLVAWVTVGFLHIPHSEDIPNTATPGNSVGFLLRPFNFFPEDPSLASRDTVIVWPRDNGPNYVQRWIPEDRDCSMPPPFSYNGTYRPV
The experiment can be described thus: DAO inhibition (Amplex Red continuous fluorescence assay). The settings on record: 30 min pre-incubation at room temp; substrate histamine; read-out: Human DAO IC50. The method, then: as §1, §2

Molecules are shown by their SMILES. Structures can show the parent of a compound that is named as a salt.

For `CCNC(=O)N(C)c1ccc(NC/C(=C\F)CN)cc1` [Compound 67, (Z)-1-(4-((2-(aminomethyl)-3-fluoroalkyl)amino)phenyl)-3-ethyl-1-methylurea], the IC50 – broadly, the midpoint of a concentration-inhibition curve – in experiment [1] was under 3 µM; in experiment [2] it was 3 to 10 µM; in experiment [3], over 10 µM; in experiment [4], 3 to 10 µM.
Take `NC/C(=C/F)COc1ccc(-c2ncc[nH]2)cc1` [Compound 63, (Z)-2-((4-(1H-imidazol-2-yl)phenoxy)methyl)-3-fluoroprop-2-en-1-amine]: the IC50 in experiment [1] was under 3 µM; in experiment [2], over 10 µM; in experiment [3], over 10 µM; in experiment [4], under 3 µM.
For `NC/C(=C\F)COc1ccc(-c2nccs2)cc1` [Compound 19, (E)-3-fluoro-2-((4-(thiazol-2-yl)phenoxy)methyl)prop-2-en-1-amine hydrochloride], the IC50 in experiment [1] is under 3 µM; in experiment [2] it was under 3 µM; in experiment [3], 3 to 10 µM; in experiment [4], under 3 µM.
Consider `CC(=O)N(CC(=CF)CN)C1CCCCC1` (mixture of isomers) [Compound 31, hydrochloride], for which the IC50 in experiment [1], in experiment [2] and in experiment [3] was over 10 µM in each case.
Turning to `NC/C(=C\F)COCc1cccs1` [Compound 41, (E)-3-fluoro-2-((thiophen-2-ylmethoxy)methyl)prop-2-en-1-amine], the IC50 was under 3 µM in experiment [1], under 3 µM in experiment [2], under 3 µM in experiment [3] and over 10 µM in experiment [4].
Regarding `NC/C(=C\F)COCc1ccccc1` [Compound 5, (E)-2-((benzyloxy)methyl)-3-fluoroprop-2-en-1-amine hydrochloride], the IC50 was under 3 µM in experiment [1], under 3 µM in experiment [2], under 3 µM in experiment [3] and over 10 µM in experiment [4].
For `NC/C(=C\F)COc1ccc(-c2ncco2)cc1` [Compound 25, (E)-3-fluoro-2-((4-(oxazol-2-yl)phenoxy)methyl)prop-2-en-1-amine hydrochloride], the IC50 in experiment [1] is under 3 µM; in experiment [2], under 3 µM; in experiment [3] it was 3 to 10 µM; in experiment [4] it was under 3 µM.
Regarding `Cn1ccnc1-c1ccc(OC/C(=C/F)CN)cc1` [Compound 27, (E)-3-fluoro-2-((4-(1-methyl-1H-imidazol-2-yl)phenoxy)methyl)prop-2-en-1-aminedihydrochloride], the IC50 in experiment [1] is under 3 µM; in experiment [2] it was under 3 µM; in experiment [3] it was over 10 µM.
For `NC/C(=C\F)COc1cccc2[nH]cnc12` [Compound 2, hydrochloride], the half-inhibitory concentration (IC50) in experiment [1] was 3 to 10 µM; in experiment [2], over 10 µM; in experiment [3] it was over 10 µM.
Regarding `CC(=O)N(C/C(=C/F)CN)c1ccccc1` [Compound 1, (E)-N-(2-(aminomethyl)-3-fluoroalkyl)-N-phenylacetamide hydrochloride], the IC50 in experiment [1], in experiment [2] and in experiment [3] was over 10 µM throughout.
As to `NC/C(=C\F)COc1ccc(C(=O)NCCOCCOCCOCCNC(=O)CCCCC2SCC3NC(=O)NC32)cc1` (stereo not drawn) [Compound 77, (E)-4-((2-(aminomethyl)-3-fluoroalkyl)oxy)-N-(13-oxo-17-(2-oxohexahydro-1H-thieno[3,4-d]imidazol-4-yl)-3,6,9-trioxa-12-azaheptadecyl)benzamide], the IC50 in experiment [2] was 3 to 10 µM; in experiment [3], over 10 µM; in experiment [4], under 3 µM.
In the case of `NC/C(=C\F)CNC1CCCCC1` [Compound 22, (E)-N1-cyclohexyl-2-(fluoromethylene)propane-1,3-diamine], the concentration for half-maximal inhibition (IC50) was over 10 µM in experiment [1], 3 to 10 µM in experiment [2] and over 10 µM in experiment [3].
As for `NC/C(=C\F)COc1ccc(C(=O)NCCCCCNC(=O)CCCCC2SCC3NC(=O)NC32)cc1` (stereo not drawn) [Compound 76, (E)-4-((2-(aminomethyl)-3-fluoroalkyl)oxy)-N-(5-(5-(2-oxohexahydro-1H-thieno[3,4-d]imidazol-4-yl)pentanamido)pentyl)benzamide], the IC50 in experiment [2] was under 3 µM; in experiment [3], over 10 µM; in experiment [4], under 3 µM.
Regarding `NC/C(=C\F)CNS(=O)(=O)c1ccccc1` [Compound 17, (E)-N-(2-(aminomethyl)-3-fluoroalkyl)benzenesulfonamide hydrochloride], the IC50 in experiment [1] was 3 to 10 µM; in experiment [2], over 10 µM; in experiment [3] it was over 10 µM.
As to `NCC(=CF)CN1CCCCC1` (mixture of isomers) [Compound 12, 3-fluoro-2-(piperidin-1-ylmethyl)prop-2-en-1-amine], the concentration for half-maximal inhibition (IC50) in experiment [1], in experiment [2] and in experiment [3] was over 10 µM each time.
For `CC(=O)N(CC(=CF)CN)Cc1ccccc1` [Compound 32], the IC50 in experiment [1], in experiment [2] and in experiment [3] was over 10 µM each time.
